Earlier results, collected in US6114314A (priority 1994, dated 2000).

Columns and labels:
[1] = test system: macrophages; conditions: tissue culture
[2] = test system: experiment neoplasm; conditions: with Interleukin 2
[3] = in cross-linked hyaluronic acid gel
[4] = test system: rabbit eye; conditions: in vivo

Row | Molecule | malfunction of macrophages (block due to excessive prostaglandin) [1] | other results
1 | CC(=O)Oc1ccccc1C(=O)O [ASA, acetylsalicylic acid] | can be altered | 
2 | COc1ccc2c(c1)c(CC(=O)O)c(C)n2C(=O)c1ccc(Cl)cc1 [indomethacin] | can be altered | cure of experiment neoplasm [2]: could effect a cure
3 | COc1ccc2cc([C@H](C)C(=O)O)ccc2c1 [naproxen] | can be altered | 
4 | heparin |  | antithrombogenic activity [3]: retained its antithrombogenic activity
5 | sodium hyaluronate [sodium hyaluronate (LifeCore)] |  | Biological Safety Testing, Rabbit Ocular Toxicity Test [4]: Passes
